Reference: patent US8937078B2, “Quinazolinones as prolyl hydroxylase inhibitors” (Janssen Pharmaceutica NV, priority 2009, dated 2015)
Entries after “also recorded” stand apart in the source; their conditions may differ.

Columns and labels:
[1] = Canine study, histological analysis (single dose escalation then repeat dose); format: in vivo; design: key to Histology: Stomach / Histology: Testis/Epididymis / Histology: Bone Marrow / Histology: Lung / Histology: Heart / Histology: Test/Epididymis / Histology: Kidney: NSL: No Significant Lesion; details: oral by stomach tube
Procedure: Various animal models are assessed for histological analysis. In one example, a canine study was used to assess the effect of 1-[6-(2,6-dimethyl-phenoxy)-7-fluoro-4-oxo-3,4-dihydro-quinazolin-2-yl]-1H-pyrazole-4-carboxylic acid when administered orally by stomach tube in a Single Dose Escalation (SDE) phase, and then subsequently for up to 5 days during the Repeat Dose (RD) phase.

human PHD2 (PHD2181-417) = biological target: T1, human PHD2 (PHD2181-417) (Homo sapiens, UniProt Q9GZT9); assay: PHD enzymatic assay ([14C]-succinic acid production); format: biochemical; details: PHD2181-417, HIF-1α peptide 10 μM, average of results; read-out: Enzyme pIC50 (converted)
T1 construct: Smt (SUMO) tag (cleaved yes); made in house; host or cells: E. coli BL21 (pBAD vector)
T1 sequence (Q9GZT9 181-417): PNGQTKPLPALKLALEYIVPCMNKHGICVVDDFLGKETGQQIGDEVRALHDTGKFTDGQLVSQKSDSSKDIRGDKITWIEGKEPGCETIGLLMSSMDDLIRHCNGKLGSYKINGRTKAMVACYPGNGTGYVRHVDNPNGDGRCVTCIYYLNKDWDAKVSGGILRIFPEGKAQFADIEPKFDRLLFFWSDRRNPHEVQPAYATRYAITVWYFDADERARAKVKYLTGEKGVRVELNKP
Outline: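 Activity measured as [14C]-succinic acid formed from [5-14C]-2-oxoglutarate over 10 minutes, with peptide substrate at 10 μM, in Tris-HCl pH 7.5 buffer containing catalase, DTT and ascorbate. Unreacted oxoglutarate removed by DNP derivatisation; supernatant beta-counted.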

Hep-3B cells = assay: Cellular assay: erythropoietin secretion in Hep-3B cells; format: cell-based, human; details: Homo sapiens, Hep3B, 100 μM compound, 24 hours, percent of EPO secretion relative to assay control compound 7-[(4-Chloro-phenyl)-(5-methyl-isoxazol-3-ylamino)-methyl]-quinolin-8-ol, read-out: Cellular % EPO Stimulation
Outline: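 Hep-3B cells in DMEM with 10% FBS, treated 24 h after plating with compounds at 100 μM final for a further 24 h. Secreted EPO in supernatant measured by MSD electrochemiluminescence sandwich immunoassay with anti-EPO detection antibody.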

Histology: Bone Marrow ([1]; 10 mg/kg/day-1001 (Male)): NSL
Histology: Heart ([1]; 10 mg/kg/day-1001 (Male)): NSL
Histology: Liver ([1]; 10 mg/kg/day-1001 (Male)): Slight, acute portal inflammation
Histology: Lung ([1]; 10 mg/kg/day-1001 (Male)): NSL
Histology: Stomach ([1]; 10 mg/kg/day-1001 (Male)): NSL
Histology: Testis/Epididymis ([1]; 10 mg/kg/day-1001 (Male)): NSL
Histology: Bone Marrow ([1]; 10 mg/kg/day-1501 (female)): NSL
Histology: Heart ([1]; 10 mg/kg/day-1501 (female)): NSL
Histology: Kidney ([1]; 10 mg/kg/day-1501 (female)): NSL
Histology: Liver ([1]; 10 mg/kg/day-1501 (female)): Slight, acute portal inflammation
Histology: Lung ([1]; 10 mg/kg/day-1501 (female)): NSL
Histology: Stomach ([1]; 10 mg/kg/day-1501 (female)): NSL
Histology: Bone Marrow ([1]; 45 mg/kg/day-2001 (Male)): BSL
Histology: Heart ([1]; 45 mg/kg/day-2001 (Male)): NSL
Histology: Liver ([1]; 45 mg/kg/day-2001 (Male)): Mild, acute central-lobular inflammation
Histology: Lung ([1]; 45 mg/kg/day-2001 (Male)): NSL
Histology: Stomach ([1]; 45 mg/kg/day-2001 (Male)): NSL
Histology: Test/Epididymis ([1]; 45 mg/kg/day-2001 (Male)): NSL
Histology: Bone Marrow ([1]; 45 mg/kg/day-2501(female)): NSL
Histology: Lung ([1]; 45 mg/kg/day-2501(female)): NSL
Histology: Stomach ([1]; 45 mg/kg/day-2501(female)): NSL
IC50 (human PHD2 (PHD2181-417)): 0.0251 µM
SMILES: Cc1cccc(C)c1Oc1cc2c(=O)[nH]c(-n3cc(C(=O)O)cn3)nc2cc1F [Example 51, 1-[6-(2,6-Dimethyl-phenoxy)-7-fluoro-4-oxo-3,4-dihydro-quinazolin-2-yl]-1H-pyrazole-4-carboxylic acid]
Histology: Kidney ([1]; 10 mg/kg/day-1001 (Male)): Slight, bilateral, acute multi-focal; also recorded: Slight, pelvic mineral deposition (right
Histology: Spleen ([1]; 10 mg/kg/day-1001 (Male)): Mild EMH, with mild, increased; also recorded: Slight, intra-macrophage brown pigment
Histology: Spleen ([1]; 10 mg/kg/day-1501 (female)): Mild EMH, with mild, increased; also recorded: Slight, intra-macrophage brown
Histology: Kidney ([1]; 45 mg/kg/day-2001 (Male)): Slight, bilateral, acute multi-focal; also recorded: Multiple cysts with slight interstitial; also recorded: Slight, renal papillary mineralization
Histology: Spleen ([1]; 45 mg/kg/day-2001 (Male)): Mild EMH; also recorded: Mild, increased megkaryocytes; also recorded: Slight intra-macrophage brown pigment
Histology: Kidney ([1]; 45 mg/kg/day-2501(female)): Slight, bilateral, acute-multi-focal; also recorded: Slight tubular vacuolization
Histology: Liver ([1]; 45 mg/kg/day-2501(female)): Mild bile duct hyperplasia; also recorded: Multifocal portal tract thrombosis; also recorded: Slight, Kupffer cell brown pigment
Histology: Spleen ([1]; 45 mg/kg/day-2501(female)): Mild EMH; also recorded: Mild, increased megkaryocytes; also recorded: Slight intra-macrophage brown
Emax at 100 µM (Hep-3B cells): 100%
